Positions of bridges follow the written chain, without caps; N, C: chain ends. Non-standard residues stand in square brackets, D forms with d. Residues, ends and D or L forms follow the SMILES beside them. *: point of attachment. hPhe(3-Cl-4-CF3) = N[C@@H](CCc1ccc(C(F)(F)F)c(Cl)c1)C(=O)O; NMeGly(cPent) = CN[C@H](C(=O)O)C1CCCC1; NMeCha = CN[C@@H](CC1CCCCC1)C(=O)O; NMeChg = CN[C@H](C(=O)O)C1CCCCC1; NMeD = CN[C@@H](CC(=O)O)C(=O)O; NMeL = CN[C@@H](CC(C)C)C(=O)O; NMeAc5c = CNC1(C(=O)O)CCCC1; Morpholide = C1CN(*)CCO1; NMeA = CN[C@@H](C)C(=O)O; Piperidide = C1CCN(*)CC1; Ac5c = NC1(C(=O)O)CCCC1; Aze = O=C(O)[C@@H]1CCN1; Sar = CNCC(=O)O
Experiments:
GTPase KRas = GTPase KRas (Homo sapiens, UniProt P01116, G12D); test: Binding affinity to biotinylated KRAS G12D mutant (unknown origin) incubated for 120 mins by SPR analysis
Sequence of GTPase KRas (P01116 whole entry G12D): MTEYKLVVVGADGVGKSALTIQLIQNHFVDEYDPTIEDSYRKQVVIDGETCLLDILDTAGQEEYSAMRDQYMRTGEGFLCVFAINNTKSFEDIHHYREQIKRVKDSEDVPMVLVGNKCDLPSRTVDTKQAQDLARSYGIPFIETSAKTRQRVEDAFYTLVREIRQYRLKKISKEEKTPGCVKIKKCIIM

[1] = test system: GTPase KRas (Homo sapiens), P01116 [G12D]; test: Binding affinity to biotinylated KRAS G12D mutant (unknown origin) assessed as Kon incubated for 120 mins by SPR analysis
Sequence of GTPase KRas (Homo sapiens), P01116 [G12D] (P01116 whole entry G12D, looked up): as the sequence (P01116 whole entry G12D) above

[2] = Apparent permeability in human Caco-2 cells incubated for 180 mins by LC-MS/MS method; assay type: ADME, cell-based
[3] = Inhibition of biotin-tagged KRAS G12D mutant (unknown origin) to recombinant His-tagged SOS1 (unknown origin) protein-protein interaction incubated for 120 mins by AlphaLISA method; parameters: species or system Homo sapiens
ASPC1 = test: Cytotoxicity against human AsPC1 cells assessed as reduction in cell viability incubated for 7 days by CellTiterGlo Luminescent Cell Viability Assay; assay type: functional, cell-based; details: ASPC1, 168 h
[4] = test system: GTPase KRas (Homo sapiens), P01116 [G12D]; test: Binding affinity to biotinylated KRAS G12D mutant (unknown origin) assessed as Koff incubated for 120 mins by SPR analysis
[5] = AUCinfinity in Cynomolgus monkey at 0.167 mg/kg, iv measured upto 24 hrs by LC-MS/MS analysis; assay type: ADME, organism-based, Macaca fascicularis; details: in vivo
[6] = AUCinfinity in BALB/c nude mouse at 20 mg/kg, po measured upto 24 hrs by LC-MS/MS analysis; assay type: ADME, organism-based; details: in vivo
[7] = Metabolic stability in monkey liver microsomes assessed as intrinsic clearance per mg protein at 0.2 uM measured upto 30 mins by LC-MS/MS analysis; assay type: ADME, Macaca mulatta, Microsome; details: rhesus monkey, read-out: CLH
[8] = Oral bioavailability in BALB/c nude mouse at 20 mg/kg measured upto 24 hrs by LC-MS/MS analysis; assay type: ADME, organism-based; details: in vivo
[9] = Half-life in Cynomolgus monkey at 15 mg/kg, po measured upto 48 hrs by LC-MS/MS analysis; assay type: ADME, organism-based, Macaca fascicularis; details: in vivo
[10] = Volume of distribution at steady state in Cynomolgus monkey at 0.167 mg/kg, iv measured upto 24 hrs by LC-MS/MS analysis; assay type: ADME, organism-based, Macaca fascicularis; details: in vivo, read-out: Vdss
[11] = Half-life in Wistar Hannover rat at 1 mg/kg, iv measured upto 24 hrs by LC-MS/MS analysis; assay type: ADME, organism-based; details: in vivo
[12] = Volume of distribution at steady state in BALB/c nude mouse at 1 mg/kg, iv measured upto 24 hrs by LC-MS/MS analysis; assay type: ADME, organism-based; details: in vivo, read-out: Vdss
[13] = Volume of distribution at steady state in Wistar Hannover rat at 1 mg/kg, iv measured upto 24 hrs by LC-MS/MS analysis; assay type: ADME, organism-based; details: in vivo
[14] = AUCinfinity in Cynomolgus monkey at 15 mg/kg, po measured upto 48 hrs by LC-MS/MS analysis; assay type: ADME, organism-based, Macaca fascicularis; details: in vivo
[15] = AUCinfinity in Wistar Hannover rat at 1 mg/kg, iv measured upto 24 hrs by LC-MS/MS analysis; assay type: ADME, organism-based; details: in vivo
[16] = Clearance in Cynomolgus monkey at 0.167 mg/kg, iv measured upto 24 hrs by LC-MS/MS analysis; assay type: ADME, organism-based, Macaca fascicularis; details: in vivo
[17] = Metabolic stability in rat liver microsomes assessed as intrinsic clearance per mg protein at 0.2 uM measured upto 30 mins by LC-MS/MS analysis; assay type: ADME, Microsome; details: read-out: CLH
[18] = Half-life in Cynomolgus monkey at 0.167 mg/kg, iv measured upto 24 hrs by LC-MS/MS analysis; assay type: ADME, organism-based, Macaca fascicularis; details: in vivo
[19] = Half-life in BALB/c nude mouse at 20 mg/kg, po measured upto 24 hrs by LC-MS/MS analysis; assay type: ADME, organism-based; details: in vivo
[20] = Clearance in Wistar Hannover rat at 1 mg/kg, iv measured upto 24 hrs by LC-MS/MS analysis; assay type: ADME, organism-based; details: in vivo
[21] = Metabolic stability in mouse liver microsomes assessed as intrinsic clearance per mg protein at 0.2 uM measured upto 30 mins by LC-MS/MS analysis; assay type: ADME, Microsome; details: read-out: CLH
[22] = AUCinfinity in Wistar Hannover rat at 10 mg/kg, po measured upto 48 hrs by LC-MS/MS analysis; assay type: ADME, organism-based; details: in vivo
[23] = Metabolic stability in human liver microsomes assessed as intrinsic clearance per mg protein at 0.2 uM measured upto 30 mins by LC-MS/MS analysis; assay type: ADME, Microsome; details: read-out: CLH
[24] = Half-life in Wistar Hannover rat at 10 mg/kg, po measured upto 48 hrs by LC-MS/MS analysis; assay type: ADME, organism-based; details: in vivo
[25] = AUCinfinity in BALB/c nude mouse at 1 mg/kg, iv measured upto 24 hrs by LC-MS/MS analysis; assay type: ADME, organism-based; details: in vivo
[26] = Oral bioavailability in Cynomolgus monkey at 15 mg/kg measured upto 48 hrs by LC-MS/MS analysis; assay type: ADME, organism-based, Macaca fascicularis; details: in vivo
[27] = Clearance in BALB/c nude mouse at 1 mg/kg, iv measured upto 24 hrs by LC-MS/MS analysis; assay type: ADME, organism-based; details: in vivo
[28] = Oral bioavailability in Wistar Hannover rat at 10 mg/kg measured upto 48 hrs by LC-MS/MS analysis; assay type: ADME, organism-based; details: in vivo
[29] = Half-life in BALB/c nude mouse at 1 mg/kg, iv measured upto 24 hrs by LC-MS/MS analysis; assay type: ADME, organism-based; details: in vivo
[30] = Half-life in Cynomolgus monkey at 10 mg/kg, po measured upto 48 hrs by LC-MS/MS analysis; assay type: ADME, organism-based, Macaca fascicularis; details: in vivo
[31] = Oral bioavailability in Cynomolgus monkey at 10 mg/kg measured upto 24 hrs by LC-MS/MS analysis; assay type: ADME, organism-based, Macaca fascicularis; details: in vivo
[32] = Volume of distribution at steady state in Cynomolgus monkey at 0.168 mg/kg, iv measured upto 24 hrs by LC-MS/MS analysis; assay type: ADME, organism-based, Macaca fascicularis; details: in vivo, read-out: Vdss
[33] = Clearance in Cynomolgus monkey at 0.168 mg/kg, iv measured upto 24 hrs by LC-MS/MS analysis; assay type: ADME, organism-based, Macaca fascicularis; details: in vivo
[34] = Half-life in Cynomolgus monkey at 0.168 mg/kg, iv measured upto 24 hrs by LC-MS/MS analysis; assay type: ADME, organism-based, Macaca fascicularis; details: in vivo
[35] = AUCinfinity in Cynomolgus monkey at 0.168 mg/kg, iv measured upto 24 hrs by LC-MS/MS analysis; assay type: ADME, organism-based, Macaca fascicularis; details: in vivo
[36] = AUCinfinity in Cynomolgus monkey at 10 mg/kg, po measured upto 48 hrs by LC-MS/MS analysis; assay type: ADME, organism-based, Macaca fascicularis; details: in vivo

Kd (GTPase KRas) | K [1] | Papp at 3 h [2] | IC50 [3] | K [4] | microsomal CLint at 0.2 µM [7] | Vd [12] | AUC(0-inf) [15] | microsomal CLint at 0.2 µM [17] | half-life [19] | microsomal CLint at 0.2 µM [21] | AUC(0-inf) [22] | microsomal CLint at 0.2 µM [23] | half-life [24] | clearance [27] | bioavailability [28] | half-life [29] | Compound | IC50 (ASPC1) | also measured
0.14 nM | 1.2 10^6/Ms | 0.56 ×10⁻⁶ cm/s | < 2 nM | 1.7 10^-4/s | – | – | – | – | – | – | – | – | – | – | – | – | CC[C@H](C)[C@@H]1NC(=O)[C@H](C)N(C)C(=O)C[C@@H](C(=O)N2CCCCC2)N(C)C(=O)[C@H](C2CCCCC2)N(C)C(=O)C2(CCCC2)NC(=O)[C@@H]2CCCN2C(=O)[C@H](CCc2ccc(C(F)(F)F)c(Cl)c2)NC(=O)CN(C)C(=O)[C@H](CC2CCCCC2)N(C)C(=O)CN(C)C(=O)CN(C)C1=O ([NMeA]I[Sar][Sar][NMeCha][Sar][hPhe(3-Cl-4-CF3)]P[Ac5c][NMeChg][NMeD]-Piperidide; lactam N-11) | 91 nM | –
0.32 nM | 7.8 10^5/Ms | 0.71 ×10⁻⁶ cm/s | < 2 nM | 2.5 10^-4/s | – | – | – | – | – | – | – | – | – | – | – | – | CC[C@H](C)[C@@H]1NC(=O)[C@H](CC(C)C)N(C)C(=O)C[C@@H](C(=O)N2CCCCC2)N(C)C(=O)[C@H](C2CCCCC2)N(C)C(=O)C2(CCCC2)NC(=O)[C@@H]2CCCN2C(=O)[C@H](CCc2ccc(C(F)(F)F)c(Cl)c2)NC(=O)CN(C)C(=O)[C@H](CC2CCCCC2)N(C)C(=O)CN(C)C(=O)CN(C)C1=O ([NMeL]I[Sar][Sar][NMeCha][Sar][hPhe(3-Cl-4-CF3)]P[Ac5c][NMeChg][NMeD]-Piperidide; lactam N-11) | 40 nM | –
0.18 nM | – | 1.74 ×10⁻⁶ cm/s | < 2 nM | – | 43 µL/min/mg | 3 L/kg | 2140 ng·h/mL | 28 µL/min/mg | 250 min | 27 µL/min/mg | 3520 ng·h/mL | 26 µL/min/mg | 238 min | 12.4 mL/min/kg | 21% | 359 min | CC[C@H](C)[C@@H]1NC(=O)[C@H](CC(C)C)N(C)C(=O)C[C@@H](C(=O)N2CCOCC2)N(C)C(=O)[C@H](C2CCCC2)N(C)C(=O)C2(CCCC2)NC(=O)[C@@H]2CCCN2C(=O)[C@H](CCc2ccc(C(F)(F)F)c(Cl)c2)NC(=O)CN(C)C(=O)[C@H](CC2CCCCC2)N(C)C(=O)[C@@H]2CCN2C(=O)[C@H](C)N(C)C1=O ([NMeL]I[NMeA][Aze][NMeCha][Sar][hPhe(3-Cl-4-CF3)]P[Ac5c][NMeGly(cPent)][NMeD]-Morpholide; lactam N-11) | 4.8 nM | AUC [5]: 673 ng·h/mL; AUC(0-inf) ([6]; BALB/c nude): 3880 ng·h/mL; bioavailability ([8]; BALB/c nude): 14%; half-life [9]: 463 min; Vd [10]: 0.37 L/kg; half-life ([11]; Wistar Hannover): 334 min; Vd ([13]; Wistar Hannover, read-out: Vdss): 0.82 L/kg; AUC [14]: 12500 ng·h/mL; clearance [16]: 4.3 mL/min/kg; half-life [18]: 488 min; clearance [20]: 7.81 mL/min/kg; AUC(0-inf) ([25]; BALB/c nude): 1350 ng·h/mL; F [26]: 7.2%
0.47 nM | – | 0.61 ×10⁻⁶ cm/s | < 2 nM | – | 32 µL/min/mg | 0.85 L/kg | 7970 ng·h/mL | 28 µL/min/mg | 388 min | 24 µL/min/mg | 5770 ng·h/mL | 18 µL/min/mg | 237 min | 5.9 mL/min/kg | 5.7% | 517 min | CC[C@H](C)[C@@H]1NC(=O)[C@H](CC(C)C)N(C)C(=O)C[C@@H](C(=O)N2CCCCC2)N(C)C(=O)[C@H](C2CCCC2)N(C)C(=O)C2(CCCC2)NC(=O)[C@@H]2CCCN2C(=O)[C@H](CCc2ccc(C(F)(F)F)c(Cl)c2)NC(=O)CN(C)C(=O)[C@H](CC2CCCCC2)N(C)C(=O)[C@@H]2CCN2C(=O)[C@H](C)N(C)C1=O ([NMeL]I[NMeA][Aze][NMeCha][Sar][hPhe(3-Cl-4-CF3)]P[Ac5c][NMeGly(cPent)][NMeD]-Piperidide; lactam N-11) | 18 nM | half-life [30]: 519 min; AUC ([6]; po, 20 mg/kg, 24 h): 3270 ng·h/mL; F ([8]; po, 20 mg/kg, 24 h): 16%; t1/2 ([11]; iv, 1 mg/kg, 24 h): 6.23 h; Vdss ([13]; iv, 1 mg/kg, 24 h): 2.6 L/kg; bioavailability [31]: 11%; Vd [32]: 0.49 L/kg; clearance [33]: 1.81 mL/min/kg; half-life [34]: 438 min; AUC(0-inf) [35]: 1590 ng·h/mL; AUC(0-inf) [36]: 10700 ng·h/mL; AUC ([25]; iv, 1 mg/kg, 24 h): 2860 ng·h/mL
0.64 nM | 3.8 10^5/Ms | 0.62 ×10⁻⁶ cm/s | < 2 nM | 2.4 10^-4/s | – | – | – | – | – | – | – | – | – | – | – | – | CC[C@H](C)[C@@H]1NC(=O)C2(CCCC2)N(C)C(=O)C[C@@H](C(=O)N2CCCCC2)N(C)C(=O)[C@H](C2CCCCC2)N(C)C(=O)C2(CCCC2)NC(=O)[C@@H]2CCCN2C(=O)[C@H](CCc2ccc(C(F)(F)F)c(Cl)c2)NC(=O)CN(C)C(=O)[C@H](CC2CCCCC2)N(C)C(=O)CN(C)C(=O)CN(C)C1=O ([NMeAc5c]I[Sar][Sar][NMeCha][Sar][hPhe(3-Cl-4-CF3)]P[Ac5c][NMeChg][NMeD]-Piperidide; lactam N-11) | 65 nM | –
